Molecules are shown by their SMILES.

Consider 2 compounds from patent US12281121B2, “N-containing heteroaryl derivative and pharmaceutical composition comprising same as active ingredient for prevention or treatment of cancer” (VORONOI Inc., priority 2019, dated 2025).

Assay [1] deals with T1, CCDC6-RET (Homo sapiens, UniProt P07949).
T1 construct: the other entry of the earlier key: CCDC6 (Q16204, Coiled-coil domain-containing protein 6)
Put plainly: RET enzyme inhibitory ability, ADP-Glo kinase assay. Format: biochemical. As to conditions: ATP 10 μM, 25° C., 1 hour. In short, it runs like this:
(§1)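 Purified human RET (658-end, 0.8 ng) was reacted with 10 μM ATP and substrate 1 h at 25°C in 40 mM Tris-HCl pH 7.4, 20 mM MgCl2, 0.5 mg/mL BSA, 50 μM DTT. ADP-Glo luminescence was normalised to solvent control; IC50 (nM) from 3 datasets.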
A general note: ADP-Glo first removes unused ATP, then detects ADP through luciferase.

Assay [2] has as its target RET (V804M) (Homo sapiens, UniProt P07949, V804M). The description is as above. The class given is biochemical. As to conditions: ATP 10 μM, 25° C., 1 hour. In short, it runs like this:
as §1

Assay [3] deals with T2, RET (WT) (Homo sapiens, UniProt P07949).
T2 construct: human RET (658-end, SIGNALCHEM); purchased SIGNALCHEM
T2 sequence (P07949 658-1114 limits assumed): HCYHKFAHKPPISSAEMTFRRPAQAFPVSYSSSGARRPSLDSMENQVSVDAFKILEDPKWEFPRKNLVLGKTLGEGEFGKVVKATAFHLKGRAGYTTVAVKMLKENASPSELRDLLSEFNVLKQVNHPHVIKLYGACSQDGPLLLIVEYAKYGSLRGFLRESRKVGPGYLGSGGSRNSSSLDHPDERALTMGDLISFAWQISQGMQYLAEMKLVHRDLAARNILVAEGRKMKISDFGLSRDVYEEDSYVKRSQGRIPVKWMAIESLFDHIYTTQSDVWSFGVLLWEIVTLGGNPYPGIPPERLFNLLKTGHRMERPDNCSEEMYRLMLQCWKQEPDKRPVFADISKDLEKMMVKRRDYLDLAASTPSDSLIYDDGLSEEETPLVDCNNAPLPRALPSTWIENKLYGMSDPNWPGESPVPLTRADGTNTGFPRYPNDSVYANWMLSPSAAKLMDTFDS
The assay is described as above. The settings on record: ATP 10 μM, 25° C., 1 hour. The class given is biochemical. In short, it runs like this:
as §1

Assay [4] has as its system Ba/F3 (naive) cells. Put plainly: Cell proliferation inhibition, CellTiter-Glo. Format: cell-based. The settings on record: Mus musculus, BaF3; Ba/F3 not transduced, 72 hours. In short, it runs like this:
(§2)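 Ba/F3 lines (naive or RET-fusion-transduced, IL-3 medium) and LC-2/ad cells exposed 72 h to compound, 12 three-fold dilutions spanning 0.3 nM–50 μM final. Viability read by CellTiter-Glo luminescence, in triplicate; GI50 derived from growth ratio (%) versus control.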
For orientation: Cellular ATP, detected with luciferase, serves as a proxy for viable cell number.

Assay [5] relates to Ba/F3 CCDC6-RET (WT) cells. Put plainly: Cell proliferation inhibition, CellTiter-Glo. The class given is cell-based. As to conditions: BaF3/CCDC6-RET, 72 hours. In short, it runs like this: as §2
Assay [6] relates to Ba/F3 KIF5B-RET (V804M) cells. The assay is described as follows: Cell proliferation inhibition, CellTiter-Glo. The class given is cell-based. The settings on record: Mus musculus, BaF3, 72 hours. A digest of the protocol:
as §2

Assay [7] has as its system Ba/F3 KIF5B-RET (WT) cells. The assay is described as follows: Cell proliferation inhibition, CellTiter-Glo. The class given is cell-based. As to conditions: Mus musculus, BaF3, 72 hours. A digest of the protocol: as §2
For assay [8], the system named is LC-2/ad cells (with CCDC6-RET gene). Put plainly: Cell proliferation inhibition, CellTiter-Glo. Format: cell-based. The settings on record: Homo sapiens; LC-2/ad lung cancer cell line, 72 hours. A digest of the protocol:
as §2

Assay [9] has as its system TT cells. The assay is described as follows: Cell proliferation inhibition, CellTiter-Glo. The class given is cell-based. As to conditions: Homo sapiens; TT thyroid cancer cell line, 72 hours.
Assay [10] concerns the target T3, AURKC (Homo sapiens, UniProt Q9UQB9).
T3 construct: purchased DiscoverX
The assay is described as follows: ScanMAX Kinase analysis panel (DiscoverX). The settings on record: read-out: adjusted percentage (% control). The class given is binding. The method, then: The following experiment was performed in order to evaluate the inhibitory activity of the compound according to the present invention against more enzymes. Specifically, for Examples 1 and 3 selected among the Example compounds of the present invention, the enzyme (kinase) selectivity was set to be measured by commissioning DiscoverX, and an experiment was conducted using a ScanMAX™ Kinase analysis panel. In this case, the concentration of the drug treated with the enzyme was set to 1 μM in DMSO, the adjusted percentage (% control) was determined in the same manner as in the following Equation 1, and the results are shown in the following Table 3. (Example compound−Positive control)/(Negative control−Positive control)×100 [Equation 1]
In addition, the enzyme selectivity of the present invention was determined to be active against the corresponding enzyme when the adjusted percentage was <35% (that is, less than 35%).

T1 sequence (P07949 with tags, fused parts or gaps): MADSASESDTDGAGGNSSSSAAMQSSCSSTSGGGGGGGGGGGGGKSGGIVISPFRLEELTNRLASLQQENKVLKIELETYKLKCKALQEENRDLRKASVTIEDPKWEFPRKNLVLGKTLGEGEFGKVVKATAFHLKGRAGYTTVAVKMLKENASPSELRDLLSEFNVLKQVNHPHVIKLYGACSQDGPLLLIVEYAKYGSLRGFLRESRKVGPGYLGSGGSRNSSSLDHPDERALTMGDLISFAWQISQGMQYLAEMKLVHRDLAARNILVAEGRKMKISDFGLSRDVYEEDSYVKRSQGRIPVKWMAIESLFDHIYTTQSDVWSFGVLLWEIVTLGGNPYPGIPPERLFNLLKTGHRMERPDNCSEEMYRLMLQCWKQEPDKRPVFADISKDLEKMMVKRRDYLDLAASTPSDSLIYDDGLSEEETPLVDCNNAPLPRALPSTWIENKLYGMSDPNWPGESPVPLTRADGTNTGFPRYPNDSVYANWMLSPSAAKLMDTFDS
Chain of RET (V804M) (P07949 658-1114 V804M limits assumed): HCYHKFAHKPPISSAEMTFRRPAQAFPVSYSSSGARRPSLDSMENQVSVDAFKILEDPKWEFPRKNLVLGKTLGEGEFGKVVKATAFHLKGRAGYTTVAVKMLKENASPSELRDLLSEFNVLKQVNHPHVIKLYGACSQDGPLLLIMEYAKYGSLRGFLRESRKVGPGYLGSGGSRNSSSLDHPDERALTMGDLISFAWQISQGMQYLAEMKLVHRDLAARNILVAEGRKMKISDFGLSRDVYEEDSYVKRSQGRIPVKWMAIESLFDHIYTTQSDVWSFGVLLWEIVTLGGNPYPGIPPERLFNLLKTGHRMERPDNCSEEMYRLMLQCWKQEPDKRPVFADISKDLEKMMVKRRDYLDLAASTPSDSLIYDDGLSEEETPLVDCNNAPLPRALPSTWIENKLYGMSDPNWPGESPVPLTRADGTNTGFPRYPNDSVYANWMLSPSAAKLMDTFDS
T3 sequence (Q9UQB9 whole entry): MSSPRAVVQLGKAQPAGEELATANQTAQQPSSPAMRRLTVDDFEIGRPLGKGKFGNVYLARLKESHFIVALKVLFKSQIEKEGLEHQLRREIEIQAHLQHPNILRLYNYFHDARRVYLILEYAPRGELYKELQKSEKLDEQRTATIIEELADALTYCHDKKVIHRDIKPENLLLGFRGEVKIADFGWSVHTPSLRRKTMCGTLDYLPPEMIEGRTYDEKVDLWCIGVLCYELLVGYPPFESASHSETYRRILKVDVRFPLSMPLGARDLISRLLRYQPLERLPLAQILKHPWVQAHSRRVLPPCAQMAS

In general, IC50 refers to the point on the concentration scale where inhibition reaches its midpoint. Low values mean higher potency, high ones lower potency. As a reminder, the GI50 is the concentration at which growth is held to half of that of the control. Consider `COc1ccc(CN2C3CC2CN(c2ccc(-c4nc(Nc5cc(C)[nH]n5)c5occc5n4)cn2)C3)cn1` [Example 1, 2-(6-(6-((6-methoxypyridin-3-yl)methyl)-3,6-diazabicyclo[3.1.1]heptan-3-yl)pyridin-3-yl)-N-(5-methyl-1H-pyrazol-3-yl)furo[3,2-d]pyrimidin-4-amine], for which the IC50 in assay [1] came out at 1.8 nM; in [2], 2.2 nM; in assay [3], 18 nM. The GI50 came to 4900 nM in [4]; 59 nM in [5]; 19 nM in assay [6]; 19 nM in assay [7]; 14 nM in [8]; 88 nM in [9]. The remaining binding at 1 µM in assay [10] stood at 15%.

For `COc1ccc(CN2C3CC2CN(c2ccc(-c4nc(Nc5cc(C)[nH]n5)c5ccccc5n4)cn2)C3)cn1` [Example 3, 2-(6-(6-((6-methoxypyridin-3-yl)methyl)-3,6-diazabicyclo [3.1.1]heptan-3-yl)pyridin-3-yl)-N-(5-methyl-1H-pyrazol-3-yl)quinazolin-4-amine], the IC50 in [1] stood at 0.9 nM; in assay [2] it was 0.7 nM; in [3], 7 nM. The GI50 in assay [4] came to 2300 nM; in assay [5], 51 nM; in assay [6], 3 nM; in assay [7], 13 nM; in assay [8], 60 nM; in [9], 30 nM. Besides, the remaining binding at 1 µM in [10] turned out to be 21%.
